≈ marks a conversion by molar mass, not a printed value.
How the values were obtained:
[1] = Cytotoxicity against mock-infected MT-4 cells (MTT); assay type: cell-based, human; conditions: human, concentration reducing viability of mock-infected MT-4 cells by 50%
Experimental: (§1) Cell line supporting the multiplication of Human Immunodeficiency Virus type-1 (HIV-1) was the CD4+ human T-cells, derived from human hematological tumors, containing an integrated HTLV-1 genome (MT-4). Cells were purchased from American Type Culture Collection (ATCC). Human Immunodeficiency Virus type-1 (HIV-1) IIIB laboratory strain was obtained from the supernatant of the persistently infected H9/IIIB cells (NIH 1983).
Exponentially growing MT-4 cells were seeded at an initial density of 1 × 10^5 cells/mL in 96-well plates in RPMI-1640 medium, supplemented with 10% fetal bovine serum (FBS), 100 units/mL penicillin G and 100 μg/mL streptomycin. Cell cultures were then incubated at 37 °C in a humidified, 5% CO2 atmosphere, in the absence or presence of serial dilutions of tested compounds. Cell viability was determined after 96 h at 37 °C by the 3-(4,5-dimethylthiazol-2-yl)-2,5-diphenyl-tetrazolium bromide (MTT) method.

HIV-1 IIIB = test: Anti-HIV-1 activity: protection of MT-4 cells from virus-induced cytopathogenicity (MTT); assay type: cell-based, Human Immunodeficiency Virus type-1; conditions: Human immunodeficiency virus 1, IIIB, MT4, 96 h; 50% protection of MT-4 cells from HIV-1 induced cytopathogenicity, MTT, 4-day incubation; read-out: HIV-1IIIB EC50
Text: as §1
The activity of compounds against HIV-1 was based on inhibition of virus-induced cytopathogenicity in MT-4 cell acutely infected with a multiplicity of infection (m.o.i.) of 0.01. Briefly, 50 μL of RPMI containing 1 × 10^4 MT-4 cells were added to each well of flat-bottom microtiter trays, containing 50 μL of RPMI without or with serial dilutions of test compounds. Then, 20 μL of a HIV-1 suspension containing 100 CCID50 were added. After a 4-day incubation at 37 °C, cell viability was determined by the MTT method.

B. cereus ATCC 11778 = test: MIC, twofold serial microdilution; assay type: cell-based; conditions: Bacillus cereus, ATCC11778; standard strain, 18 h, 35 °C
Experimental: (§2) The antimicrobial activity of the compounds was tested on Gram-positive bacteria (Staphylococcus aureus NCTC 4163, Staphylococcus aureus ATCC 25923, Staphylococcus aureus ATCC 6538, Staphylococcus aureus ATCC 29213, Staphylococcus epidermidis ATCC 12228, Staphylococcus epidermidis ATCC 35984, Enterococcus faecalis ATCC 29212, Bacillus subtilis ATCC 6633, Bacillus cereus ATCC 11778, Micrococcus luteus ATCC 9341, Micrococcus luteus ATCC 10240); Gram-negative rods (Escherichia coli ATCC 10538, Escherichia coli ATCC 25922, Escherichia coli NCTC 8196, Proteus vulgaris NCTC 4635, Pseudomonas aeruginosa ATCC 15442, Pseudomonas aeruginosa NCTC 6749, Pseudomonas aeruginosa ATCC 27863, Bordetella bronchiseptica ATCC 4617) and yeasts (Candida albicans ATCC 10231, Candida albicans ATCC 90028, Candida parapsilosis ATCC 22019). Other microorganisms used were obtained from the collection of the Department of Pharmaceutical Microbiology, Medical University of Warsaw, Poland.
(§3) Antibacterial activity was examined by the disc-diffusion method under standard conditions using Mueller-Hinton II agar medium (Becton Dickinson) according to CLSI (previously NCCLS) guidelines. Antifungal activities were assessed using Mueller-Hinton agar + 2% glucose and 0.5 µg/mL Methylene Blue Dye Medium. Sterile filter paper discs (9 mm diameter, Whatman No 3 chromatography paper) were dripped with tested compound solutions (in DMSO) to load 400 μg of a given compound per disc. Dry discs were placed on the surface of appropriate agar medium. The results (diameter of the growth inhibition zone) were read after 18 h of incubation at 35 °C. Minimal Inhibitory Concentration (MIC) was tested by the twofold serial microdilution method (in 96-well microtiter plates) using Mueller-Hinton Broth medium (Beckton Dickinson) for bacteria or RPMI-1640 medium for Candida species according to CLSI guidelines. The stock solution of tested agent was prepared in DMSO and diluted in sterile water. Concentrations of tested agents ranged from 0.125 to 512 µg/mL. The final inoculum of all studied microorganisms was 10^5 CFU/ mL^−1 (colony forming units per mL). Minimal inhibitory concentrations (the lowest concentration of a tested agent that prevents visible growth of a microorganism) were read after 18 h (bacteria) or 24 h (yeasts) of incubation at 35 °C.

B. subtilis ATCC 6633 = test: MIC, twofold serial microdilution; assay type: cell-based; conditions: Bacillus subtilis, ATCC6633; standard strain, 18 h, 35 °C
Experimental: as §2, §3

E. faecalis ATCC 29212 = test: MIC, twofold serial microdilution; assay type: cell-based; conditions: Enterococcus faecalis, ATCC29212; standard strain, 18 h, 35 °C
Experimental: as §2, §3

M. luteus ATCC 10240 = test: MIC, twofold serial microdilution; assay type: cell-based; conditions: Micrococcus luteus, ATCC10240; standard strain, 18 h, 35 °C
Experimental: as §2, §3

M. luteus ATCC 9341 = test: MIC, twofold serial microdilution; assay type: cell-based; conditions: Micrococcus luteus, ATCC9341; standard strain, 18 h, 35 °C
Experimental: as §2, §3

S. aureus ATCC 25923 = test: MIC, twofold serial microdilution; assay type: cell-based; conditions: Staphylococcus aureus, ATCC25923; standard strain, 18 h, 35 °C
Experimental: as §2, §3

S. aureus ATCC 29213 = test: MIC, twofold serial microdilution; assay type: cell-based; conditions: Staphylococcus aureus, ATCC29213; standard strain, 18 h, 35 °C
Experimental: as §2, §3

S. aureus ATCC 6538 = test: MIC, twofold serial microdilution; assay type: cell-based; conditions: Staphylococcus aureus, ATCC6538; standard strain, 18 h, 35 °C
Experimental: as §2, §3

S. aureus NCTC 4163 = test: MIC, twofold serial microdilution; assay type: cell-based; conditions: Staphylococcus aureus, NCTC4163; standard strain, 18 h, 35 °C
Experimental: as §2, §3

[2] = test system: S. epidermidis ATCC 12228; test: MIC, twofold serial microdilution; assay type: cell-based; conditions: Staphylococcus epidermidis, ATCC12228; standard strain, 18 h, 35 °C
Experimental: as §2, §3

[3] = test system: S. epidermidis ATCC 35984; test: MIC, twofold serial microdilution; assay type: cell-based; conditions: Staphylococcus epidermidis, ATCC35984; standard strain, 18 h, 35 °C
Experimental: as §2, §3

[4] = test system: S. epidermidis MRSE 403/11; test: MIC, hospital methicillin-resistant strain; assay type: cell-based; conditions: Staphylococcus epidermidis
Experimental: as §2, §3

[5] = test system: S. epidermidis MRSE 404/11; test: MIC, hospital methicillin-resistant strain; assay type: cell-based; conditions: Staphylococcus epidermidis
Experimental: as §2, §3

[6] = test system: S. epidermidis MRSE 405/11; test: MIC, hospital methicillin-resistant strain; assay type: cell-based; conditions: Staphylococcus epidermidis
Experimental: as §2, §3

[7] = test system: S. epidermidis MRSE 406/11; test: MIC, hospital methicillin-resistant strain; assay type: cell-based; conditions: Staphylococcus epidermidis
Experimental: as §2, §3

[8] = test system: S. epidermidis MRSE 407/11; test: MIC, hospital methicillin-resistant strain; assay type: cell-based; conditions: Staphylococcus epidermidis
Experimental: as §2, §3

[9] = test system: S. epidermidis MRSE 409/11; test: MIC, hospital methicillin-resistant strain; assay type: cell-based; conditions: Staphylococcus epidermidis
Experimental: as §2, §3

[10] = test system: S. epidermidis MRSE 411/11; test: MIC, hospital methicillin-resistant strain; assay type: cell-based; conditions: Staphylococcus epidermidis
Experimental: as §2, §3

[11] = test system: S. epidermidis MRSE 412/11; test: MIC, hospital methicillin-resistant strain; assay type: cell-based; conditions: Staphylococcus epidermidis
Experimental: as §2, §3

[12] = test system: S. epidermidis MRSE 413/11; test: MIC, hospital methicillin-resistant strain; assay type: cell-based; conditions: Staphylococcus epidermidis
Experimental: as §2, §3

[13] = test system: S. epidermidis MRSE 422/11; test: MIC, hospital methicillin-resistant strain; assay type: cell-based; conditions: Staphylococcus epidermidis
Experimental: as §2, §3

staphylococci = test: MIC against staphylococci; assay type: cell-based; conditions: moderate activity
Experimental: as §2, §3

| Structure (SMILES) | CC50 at 96 h [1] | EC50 (HIV-1 IIIB) | MIC (B. cereus ATCC 11778) | MIC (B. subtilis ATCC 6633) | MIC (E. faecalis ATCC 29212) | MIC (M. luteus ATCC 10240) | MIC (M. luteus ATCC 9341) | MIC (S. aureus ATCC 25923) | MIC (S. aureus ATCC 29213) | MIC (S. aureus ATCC 6538) | MIC (S. aureus NCTC 4163) | MIC [2] | MIC [3] | MIC [4] | MIC [5] | MIC [6] | MIC [7] | MIC [8] | MIC [9] | MIC [10] | also measured |
| --- | --- | --- | --- | --- | --- | --- | --- | --- | --- | --- | --- | --- | --- | --- | --- | --- | --- | --- | --- | --- | --- |
| CSCCCNC(=S)Nc1ccc(Cl)c([N+](=O)[O-])c1 [Compound 29, 1-(4-chloro-3-nitrophenyl)-3-[3-(methylsulfanyl)propyl]thiourea] | 33.7 µM | > 33.7 µM | 8 µg/mL (≈ 25 µM) | 16 µg/mL (≈ 50 µM) | 64 µg/mL (≈ 200 µM) | 32 µg/mL (≈ 100 µM) | 16 µg/mL (≈ 50 µM) | 16 µg/mL (≈ 50 µM) | 16 µg/mL (≈ 50 µM) | 16 µg/mL (≈ 50 µM) | 16 µg/mL (≈ 50 µM) | 16 µg/mL (≈ 50 µM) | 16 µg/mL (≈ 50 µM) | 32 µg/mL (≈ 100 µM) | 32 µg/mL (≈ 100 µM) | 32 µg/mL (≈ 100 µM) | 32 µg/mL (≈ 100 µM) | 32 µg/mL (≈ 100 µM) | 32 µg/mL (≈ 100 µM) | 32 µg/mL (≈ 100 µM) | MIC [11]: 32 µg/mL (≈ 100 µM); MIC [12]: 32 µg/mL (≈ 100 µM); MIC [13]: 32 µg/mL (≈ 100 µM); MIC range towards staphylococci (staphylococci): 8 to 16 µg/mL; melting point: 102 to 103.5 °C |
| O=[N+]([O-])c1cc(NC(=S)NCc2ccco2)ccc1Cl [Compound 30, 1-(4-chloro-3-nitrophenyl)-3-(furan-2-ylmethyl)thiourea] | 25.6 µM | > 25.6 µM | 16 µg/mL (≈ 51.3 µM) | 16 µg/mL (≈ 51.3 µM) | 32 µg/mL (≈ 103 µM) | 16 µg/mL (≈ 51.3 µM) | 16 µg/mL (≈ 51.3 µM) | 8 µg/mL (≈ 25.7 µM) | 16 µg/mL (≈ 51.3 µM) | 16 µg/mL (≈ 51.3 µM) | 16 µg/mL (≈ 51.3 µM) | 32 µg/mL (≈ 103 µM) | 32 µg/mL (≈ 103 µM) | 32 µg/mL (≈ 103 µM) | 32 µg/mL (≈ 103 µM) | 32 µg/mL (≈ 103 µM) | 64 µg/mL (≈ 205 µM) | 32 µg/mL (≈ 103 µM) | 32 µg/mL (≈ 103 µM) | 32 µg/mL (≈ 103 µM) | MIC [11]: 32 µg/mL (≈ 103 µM); MIC [12]: 32 µg/mL (≈ 103 µM); MIC [13]: 32 µg/mL (≈ 103 µM); MIC range towards staphylococci (staphylococci): 8 to 16 µg/mL; melting point: 144 to 146 °C |
